Test results: patent publication US10065988B2, “Peptoid affinity ligands” (Stefano Menegatti, priority 2013, dated 2018)
*1 amine or outer side, *2 acyl side, *3 side chain or, on linkers, in order; H or OH if unused. Where a SMILES comes first, the peptide text is derived from it. [ ]: non-standard residue; d: D form. Gly(N(CH2)2(3-indolyl)) = O=C(O)CNCCc1c[nH]c2ccccc12; Gly(N-(CH2)3-guanidino) = N=C(N)NCCCNCC(=O)O; X1 = O=C(CN(CCc1ncc[nH]1)[*:1])[*:2]; Gly(N(CH2)3NH2) = NCCCNCC(=O)O; N(iPr)Gly = CC(C)NCC(=O)O

Each compound was assayed on human IgG (hIgG) (assay: Batch mode IgG binding to peptoid-functionalized Toyopearl AF-amino 650 M resin). Settings: polyclonal hIgG 0.5 mg/mL in PBS, 2 mg hIgG per mL resin, 45 min at 22° C., elution 0.1 M glycine pH 2.5, ELISA and SDS-PAGE (FIG. 1, FIG. 2).
From the text: FIG. 1. Batch mode IgG adsorption to Toyopearl AF-amino 650 M resins functionalized with different peptoid ligands. IgG in the flow-through fractions (black) indicate the percent hIgG that was not adsorbed to the resin relative to the mass of hIgG loaded. The elution fractions (grey) indicate the percent of human IgG that was bound in phosphate buffered saline (PBS) and eluted (0.1 M glycine, pH 2.5) relative to the initial concentration of IgG that was loaded. Concentrations of hIgG in all fractions were determined by ELISA. The unmodified resin served as the negative control. Binding trials were done in duplicate for each resin.
FIG. 2. Reducing SDS-PAGE analysis of elution and flow-through fractions from hIgG adsorption experiments. Lanes designated “FT” and “Elute” are the flow-through and elution fractions, respectively. The lane marked “hIgG loaded” is the pre-adsorbed hIgG solution that was incubated with each resin tested. The heavy and light chains of hIgG migrate at ˜55 and ˜25 kDa, respectively, on reducing SDS-PAGE gels.
IgG Binding to Resin: The ability of the peptoid affinity ligands to bind human IgG (hIgG) was tested in batch mode. A 50% slurry of the resin was prepared, of which 200 μl (˜100 mg resin) was transferred into the spin column. The resin was throughly washed with dH2O and equilibrated with PBS prior to hIgG exposure. Polyclonal hIgG (Equitech-Bio) was diluted to 0.5 mg/mL with PBS. After equilibration, a 0.5 mg/mL solution of hIgG was added to the resin to achieve a ratio of 2 mg hIgG per mL of resin, and allowed to incubate for 45 min at 22° C. with vigorous shaking. After incubation, the resin was centrifuged at 500×g for 2 min in which the filtrate of this step was collected and labeled as “flow-through” fraction. The resin was subsequently washed 2× with PBS. Elution buffer (0.1 M glycine, pH 2.5) was added to the resin and mixed vigorously for 10 min at 22° C. After centrifugation (500×g for 2 min) bound hIgG was eluted from the resin and collected in the filtrate. The amount of hIgG found in the flow-through and elution fraction was determined using an ELISA-based quantitative assay (Bethyl, Cat. No. E80-104). hIgG yields were determined as the ratio of hIgG mass in the elution fraction and hIgG mass in the loading solution (FIG. 1). SDS-PAGE analysis of all collected fractions was carried out to determine product purity and evaluate the ligand selectivity (FIG. 2).

SMILES	ability of the peptoid affinity ligands to bind human IgG (hIgG) to the resin
N=C(N)NCCCN(CC(=O)NCC(=O)O)C(=O)CN(CCc1c[nH]c2ccccc12)C(=O)CNCCc1ncc[nH]1 [Ligand G003]	useful for binding IgG to the resin
N=C(N)NCCCN(CC(=O)O)C(=O)CN(CCc1c[nH]c2ccccc12)C(=O)CNCCc1ncc[nH]1 [Ligand G005]	useful for binding IgG to the resin
CC(C)N(CC(=O)O)C(=O)CN(CCc1c[nH]c2ccccc12)C(=O)CNC(=O)CN(CCCN)C(=O)CN(CCc1c[nH]c2ccccc12)C(=O)CNCCc1ncc[nH]1 [Ligand G012] (H-[X1][Gly(N(CH2)2(3-indolyl))][Gly(N(CH2)3NH2)]G[Gly(N(CH2)2(3-indolyl))][N(iPr)Gly]-OH)	useful for binding IgG to the resin
CC(C)N(CC(=O)O)C(=O)CN(CCc1c[nH]c2ccccc12)C(=O)CNC(=O)CN(CCCNC(=N)N)C(=O)CN(CCc1c[nH]c2ccccc12)C(=O)CNCCc1ncc[nH]1 [Ligand G001] (H-[X1][Gly(N(CH2)2(3-indolyl))][Gly(N-(CH2)3-guanidino)]G[Gly(N(CH2)2(3-indolyl))][N(iPr)Gly]-OH)	useful for binding IgG to the resin
